The values that follow come from US6855730B2, “3-methylidenyl-2-indolinone modulators of protein kinase” (Sugen, Inc., priority 1998, dated 2005).

Structures are written as SMILES. A value given as a limit tells only on which side of the number the result lay.

This test concerns the target T1, 3T3 cell line genetically engineered to express human EGF-R (Homo sapiens, UniProt P00533).
T1 construct: expressed in transfected cells; host or cells: 3T3
In words: EGF-induced BrdU incorporation assay. The following applies: read-out: BrdU EGF driven IC50. The format is cell-based. As to the method: The cellular/catalytic assays described herein are performed in an ELISA format. The general procedure is as follows: a compound is introduced to cells expressing the test kinase, either naturally or recombinantly, for a selected period of time after which, if the test kinase is a receptor, a ligand known to activate the receptor is added. The cells are lysed and the lysate is transferred to the wells of an ELISA plate previously coated with a specific antibody recognizing the substrate of the enzymatic phosphorylation reaction. Non-substrate components of the cell lysate are washed away and the amount of phosphorylation on the substrate is detected with an antibody specifically recognizing phosphotyrosine compared with control cells that were not contacted with a test compound. The cellular/biologic assays described herein measure the amount of DNA made in response to activation of a test kinase, which is a general measure of a proliferative response. The general procedure for this assay is as follows: a compound is introduced to cells expressing the test kinase, either naturally or recombinantly, for a selected period of time after which, if the test kinase is a receptor, a ligand known to activate the receptor is added. After incubation at least overnight, a DNA labeling reagent such as Bromodeoxyuridine (BrdU) or 3H-thymidine is added. The amount of labeled DNA is detected with either an anti-BrdU antibody or by measuring radioactivity and is compared to control cells not contacted with a test compound. […]
Protocol • (1) Cells are seeded at 8000 cells/well in 10% CS, 2mM Gin in DMEM, in a 96 well plate. Cells are incubated overnight at 37° C. in 5% CO2. • (2) After 24 hours, the cells are washed with PBS, and then are serum starved in serum free medium (0% CS DMEM with 0.1% BSA) for 24 hours. • (3) On day 3, ligand (EGF, 2 nM, prepared in DMEM with 0.1% BSA) and test compounds are added to the cells simultaneously. The negative control wells receive serum free DMEM with 0.1% BSA only, the positive control cells receive the ligand (EGF) but no test compound. Test compounds are prepared in serum free DMEM with ligand in a 96 well plate, and serially diluted for 7 test concentrations. • (4) After 20 hours of ligand activation, diluted BrdU labeling reagent (1:100 in DMEM, 0.1% BSA) is added and the cells are incubated with BrdU (final concentration=10 μM) for 1.5 hours. • (5) After incubation with labeling reagent, the medium is removed by decanting and tapping the inverted plate on a paper towel. FixDenat solution is added (50 μl/well) and the plates are incubated at room temperature for 45 minutes on a plate shaker. • (6) The FixDenat solution is thoroughly removed by decanting and tapping the inverted plate on a paper towel. Milk is added (5% dehydrated milk in PBS, 200 μl/well) as a blocking solution and the plate is incubated for 30 minutes at room temperature on a plate shaker. • (7) The blocking solution is removed by decanting and the wells are washed once with PBS. Anti-BrdU-POD solution (1:100 dilution in PBS, 1% BSA) is added (100 μ/well) and the plate is incubated for 90 minutes at room temperature on a plate shaker. • (8) The antibody conjugate is thoroughly removed by decanting and rinsing the wells 5 times with PBS, and the plate is dried by inverting and tapping on a paper towel. • (9) TMB substrate solution is added (100 μl/well) and incubated for 20 minutes at room temperature on a plate shaker until color development is sufficient for photometric detection. • (10) The absorbance of the samples are measured at 410 nm (in “dual wavelength” mode with a filter reading at 490 nm, as a reference wavelength) on a Dynatech ELISA plate reader.
For orientation: Dividing cells build labelled thymidine or BrdU into new DNA.
With `COc1c(C(C)C)cc(/C=C2/C(=O)Nc3ccc(C(C)=O)cc32)cc1C(C)C` [Example 5, 5-Acetyl-3-(3,5-diisopropyl-4-methoxybenzylidene)-1,3dihydroindol-2-one], the concentration for half-maximal inhibition (IC50) – broadly, the concentration that inhibits the measured activity by half – was determined as 7.2 µM.

Turning to `COc1ccc(/C=C2/C(=O)Nc3ccccc32)cc1C1CCCCC1` [Example 12, 3-(3-Cyclohexyl-4-methoxybenzylidene)-1,3-dihydroindol-2-one], the IC50 was 30.6 µM.

For the compound `CC1(C)CCc2cc(/C=C3/C(=O)Nc4ccc(Cl)cc43)ccc2O1` [Example 15, 5-Chloro-3-(2,2-dimethyl-chroman-6-ylmethylene)-1,3-dihydroindol-2-one], the IC50 was found to be 7.8 µM.

Regarding `COc1c(C)cc(/C=C2/C(=O)Nc3ccc(Cl)cc32)cc1C` [Example 21, 5-Chloro-3-(4-methoxy-3,5-dimethylbenzylidene)-1,3-dihydroindol-2-one], the IC50 was 8 µM.

On to `COc1cccc(-c2cc(OC)c(OC)cc2/C=C2/C(=O)Nc3ccc(Cl)cc32)c1` [Example 61, 5-Chloro-3-(4,5-3′-Trimethoxybiphenyl-2-ylmethylene)-1,3-dihydroindol-2-one], for which the 50% inhibitory concentration (IC50) was > 50 µM.

In the case of `COc1ccc(/C=C2/C(=O)Nc3cc(NC(C)=O)ccc32)cc1-c1ccsc1` [Example 18, N-[3-(4-Methoxy-3-thiophene-3-ylbenzylidene)-2-oxo-2,3-dihydro-1H-indol-6-yl]-acetamide], the IC50 is > 50 µM.

Regarding `CC(=O)Nc1ccc2c(c1)NC(=O)/C2=C/c1ccc(OCCN2CCOCC2)c(C2CCCCC2)c1` [Example 16, N-{3-[3-Cyclohexyl-4-(2-morpholin-4-ylethoxy)-benzylidene]-2-oxo-2,3-dihydro-1H-indol-6-yl}-acetamide], the half-inhibitory concentration (IC50) was 6.4 µM.

For `COc1c(C(C)C)cc(/C=C2/C(=O)Nc3ccc(N)cc32)cc1C(C)C` [Example 20, 5-Amino-3-(3,5-diisopropyl-4-methoxy-benzylidene)-1,3-dihydroindol-2-one], the 50% inhibitory concentration (IC50) amounted to 30 µM.

Consider `COC(=O)c1ccc2c(c1)/C(=C\c1cc(C(C)C)c(OC)c(C(C)C)c1)C(=O)N2` [Example 6, 3-(3,5-Diisopropyl-4-methoxybenzylidene)-2-oxo-2,3-dihydro-1H-indole-5-carboxylic acid methyl ester], for which the IC50 is 12 µM.

As for `CC(C)c1cc(/C=C2/C(=O)Nc3ccc(Br)cc32)cc(C(C)C)c1OCCN1CCOCC1` [Example 57, 5-Bromo-3-[3,5-diisopropyl-4-(2-morpholin-4-ylethoxy)benzylidene]-1,3-dihydroindol-2-one], the 50% inhibitory concentration (IC50) amounted to 12.3 µM.

For `COc1ccc(/C=C2/C(=O)Nc3ccc(Cl)cc32)cc1-c1cccnc1` [Example 60], the IC50 is > 50 µM.

On to `COc1ccc(/C=C2/C(=O)Nc3ccc(CCN4CCOCC4)cc32)cc1-c1ccsc1` [Example 26, 3-(4-Methoxy-3-thiophen-3-ylbenzylidene)-5-(2-morpholin-4-yl-ethyl)-1,3-dihydroindol-2-one], for which the IC50 is > 50 µM.

In the case of `COc1ccc(/C=C2/C(=O)Nc3ccccc32)cc1-c1ccsc1` [Example 35, 3-(4-Methoxy-3-thiophen-3-ylbenzylidene)-1,3-dihydroindol-2-one], the half-inhibitory concentration (IC50) is 28.1 µM.

Take `COc1ccc(C=C2C(=O)Nc3cc(NC(C)=O)ccc32)cc1-c1cccc(NC(C)=O)c1` (mixture of isomers) [Example 63, N-[3-(3′-Acetylamino-6-methoxybiphenyl-3-ylmethylene)-2-oxo-2,3-dihydro-1H-indol-6-yl]-acetamide]: the 50% inhibitory concentration (IC50) is 30.5 µM.

As for `COc1ccc(/C=C2/C(=O)Nc3ccc(Cl)cc32)cc1-c1cccs1` [Example 59, 5-chloro-3-(4-Methoxy-3-thiophen-2-ylbenzylidene)-1,3-dihydroindol-2-one], the IC50 amounted to 44.5 µM.

With `COc1ccc(/C=C2/C(=O)Nc3ccccc32)cc1C(C)C` [Example 7, 3-(3-Isopropyl-4-methoxybenzylidene)-1,3-dihydroindol-2-one], the 50% inhibitory concentration (IC50) was determined as 24.5 µM.

With `COc1cc(C)c(/C=C2/C(=O)Nc3ncccc32)cc1C(C)C` [Example 45, 3-(5-Isopropyl-4-methoxy-2-methylbenzylidene)-1,3-dihydro-pyrrolo[2,3-b]pyridin-2-one], the IC50 was > 50 µM.

With `CC(=O)Nc1ccc2c(c1)NC(=O)/C2=C/c1ccc(OCCN2CCOCC2)c(-c2cccs2)c1` [Example 40, N-{3-[4-(2-Morpholin-4-ylethoxy)-3-thiophen-2-ylbenzylidene]-2-oxo-2,3-dihydro-1H-indol-6-yl}-acetamide], the IC50 was 28.6 µM.

In the case of `COc1cc(/C=C2/C(=O)Nc3ccccc32)c(-c2cccs2)cc1OC` [Example 39, 3-(4,5-Dimethoxy-2-thiophen-2-ylbenzylidene)-1,3-dihydroindol-2-one], the IC50 worked out at 16.2 µM.

For the compound `CC(=O)Nc1ccc2c(c1)NC(=O)/C2=C/c1ccc(OCCN2CCOCC2)c(-c2ccsc2)c1` [Example 50, N-{3-[4-(2-Morpholin-4-ylethoxy)-3-thiophen-3-ylbenzylidene]-2-oxo-2,3-dihydro-1H-indol-6-yl}-acetamide], the half-maximal inhibitory concentration (IC50) worked out at 37.9 µM.

Consider `CC1(C)CCc2cc(/C=C3/C(=O)Nc4ccc(F)cc43)ccc2O1` [Example 23, 3-(2,2-Dimethylchroman-6-ylmethylene)-5-fluoro-1,3-dihydroindol-2-one], for which the 50% inhibitory concentration (IC50) stood at 32.9 µM.

Take `COc1c(C(C)C)cc(/C=C2/C(=O)Nc3cc(NC(C)=O)ccc32)cc1C(C)C` [Example 3, N-[3-(3,5-Diisopropyl-4-methoxybenzylidene)-2-oxo-2,3-dihydro-1H-indol-6-yl]-acetamide]: the IC50 amounted to 11 µM.

Consider `COc1ccc(/C=C2/C(=O)Nc3cc(NC(C)=O)ccc32)cc1-c1cccs1` [Example 31, N-[3-(4-Methoxy-3-thiophen-2-ylbenzylidene)-2-oxo-2,3-dihydro-1H-indol-6-yl]-acetamide], for which the half-inhibitory concentration (IC50) turned out to be 38.6 µM.

Consider `COc1ccc(/C=C2/C(=O)Nc3ncccc32)cc1C1CCCC1` [Example 47, 3-(3-Cyclopentyl-4-methoxybenzylidene)-1,3-dihydropyrrolo[2,3-b]pyridin-2-one], for which the IC50 was > 50 µM.

`COc1ccc(/C=C2/C(=O)Nc3ccc(Br)cc32)cc1-c1ccccc1` [Example 13, 5-Bromo-3-(6-methoxybiphenyl-3-ylmethylene)-1,3-dihydroindol-2-one]: the half-inhibitory concentration (IC50) is 26.6 µM.
